The IC50 is the point on the concentration scale where inhibition reaches its midpoint.

Bounds are passed on as bounds.

The values that follow come from patent US12054479B1, “Multicyclic compounds” (SLAP Pharmaceuticals LLC, priority 2022, dated 2024).

In assay [1] the target is T1, PARP1 (Homo sapiens, UniProt P09874). In words: cell-based assay (Table 1); proliferation assay (PARP inhibitors) in DLD-1 wt and DLD-1 BRCA2, CTG detection. Also noted: endogenous in cells; host or cells: DLD-1 wt and DLD-1 BRCA2 (-/-). The note with it: Table 1, results of the cell-based assay; cell line (DLD-1 wt or DLD-1 BRCA2) not given. The procedure:
Proliferation Assay (PARP Inhibitors) in DLD-1 wt and DLD-1 BRCA2
DLD-1-wt and DLD-1 mutant cells are cultured in RPMI 1640+10% FBS+1% PS. The cells are harvested into culture media for 2-3 days. The cells are diluted into culture media (density 2˜3×10^6) and 40 uL of cell suspension (50 cells/well for DLD-1 wt and 50 cells/well for DLD-1 BRCA (−/−). The plates are covered and spun at rt at 1000 rpm, for 1 minute and then transferred. The plates are placed into 37° C. 5% CO2 incubator overnight. Test compounds are dissolved at 10 mM DMSO stock solution and then 40 uL of stock solution is transferred to a 384 PP-plate. A 10-point dilution is carried out by transferring 10 uL compound into 30 μL DMSO by using TECAN (EVO200) liquid handler. The plates are spun at rt at 1000 rpm for 1 minute and then shaken on a plate shaker for 2 minutes. Forty nL of diluted compound is transferred into the cell plate by using a liquid handler. After 7 days of incubation, a CTG detection assay is performed. The CTG detection assay is carried out by removing the plates from the incubators and then equilibrated at rt for 15 minutes. The CellTiter Glo reagents are thawed and equilibrated at rt. CellTiter-Glo reagent (30 μL) is added into each well, and the plates are placed at rt for 30 minutes followed by reading on EnVision. The inhibition activity is calculated using the formula: % Inhibition=100×(LumHC−LumSample)/(LumHC−LumLC).
In Table 1, ‘A’ indicates an IC50 of <0.1 μM, ‘B’ indicates an IC50 of ≥0.1 μM and <1.0 μM, and ‘C’ indicates an IC50 of ≥1.0 μM. As shown by the results in Table 1, compounds of Formula (I), including pharmaceutically acceptable salts thereof, are effective PARP1 inhibitors.

The target in assay [2] is T1, PARP1. In words: biochemical assay (Table 2); FP binding assay (PARP1, PARP2) with PARPi-FL. The note with it: Table 2, results of the biochemical assay. The procedure: FP Binding Assay (PARP1, PARP2)
The PARP1 and PARP 2 protein and the PARPi-FL were purchased from BPS Bioscience. The assay buffer was 50 mM Tris pH 8.0, 0.001% Triton X-100, 10 mM MgCl2, 150 mM NaCl. The compounds were diluted into top point concentration in 384PP-plate and transferred serially into an Optiplate-384F plate. Compound (20 nL) or DMSO was added to assay plate and then 10 uL of 40 nM PARP1 or PARP2 (diluted using assay buffer) was added. The assay plate was centrifuged at 1000 rpm for 1 min and then incubated for 30 min at rt. 6 nM PARPi-FL (diluted using assay buffer) (10 uL) was added to the plate (final concentration of PARP1 and PARP2 was 20 nM, and PARPi-FL was 3 nM). After centrifuging at 1000 rpm for 1 min, the assay plate was incubated at rt 4 h. The plates were read using Envision with Excitation filter. The data analysis was done by calculating the inhibition rate using mP value using the following equation. Inhibition (%)=(1−mpC−mpL)/mpH−mpL×100%.
As shown by the results in Table 2, compounds of Formula (I), including pharmaceutically acceptable salts thereof, are effective PARP1 inhibitors.

T1 sequence (P09874 whole entry): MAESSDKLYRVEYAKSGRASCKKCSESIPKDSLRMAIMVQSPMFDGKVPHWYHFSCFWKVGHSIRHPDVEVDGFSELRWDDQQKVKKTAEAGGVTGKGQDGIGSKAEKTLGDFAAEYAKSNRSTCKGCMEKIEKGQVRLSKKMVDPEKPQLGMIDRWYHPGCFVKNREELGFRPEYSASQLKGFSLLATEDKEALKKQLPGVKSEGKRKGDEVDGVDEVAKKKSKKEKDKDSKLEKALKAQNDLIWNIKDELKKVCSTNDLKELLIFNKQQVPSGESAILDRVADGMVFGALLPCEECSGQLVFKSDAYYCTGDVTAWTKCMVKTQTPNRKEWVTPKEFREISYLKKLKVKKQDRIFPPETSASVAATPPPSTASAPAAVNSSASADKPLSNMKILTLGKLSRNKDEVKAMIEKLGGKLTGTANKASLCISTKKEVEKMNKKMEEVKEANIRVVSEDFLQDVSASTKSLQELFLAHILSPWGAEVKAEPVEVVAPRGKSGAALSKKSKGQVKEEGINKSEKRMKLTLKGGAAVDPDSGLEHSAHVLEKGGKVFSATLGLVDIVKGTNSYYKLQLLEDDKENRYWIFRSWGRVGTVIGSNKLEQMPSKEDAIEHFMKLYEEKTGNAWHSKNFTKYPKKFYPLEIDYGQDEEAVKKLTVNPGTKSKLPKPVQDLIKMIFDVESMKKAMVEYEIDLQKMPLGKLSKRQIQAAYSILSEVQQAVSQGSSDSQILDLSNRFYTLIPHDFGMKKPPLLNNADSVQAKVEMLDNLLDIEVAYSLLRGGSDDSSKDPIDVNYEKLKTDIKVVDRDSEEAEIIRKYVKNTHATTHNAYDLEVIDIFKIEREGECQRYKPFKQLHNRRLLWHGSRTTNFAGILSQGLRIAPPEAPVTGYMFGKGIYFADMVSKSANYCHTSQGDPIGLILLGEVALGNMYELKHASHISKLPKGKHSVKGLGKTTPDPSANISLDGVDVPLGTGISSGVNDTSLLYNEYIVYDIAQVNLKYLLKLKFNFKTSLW

Consider `CCC1Oc2ccc(CN3CCN(c4ccc(C(=O)NC)nc4F)CC3)c(F)c2NC1=O` (single isomer, unassigned) [Compound 3aa], for which, at PARP1 [1], the IC50 was less than 100 nM.

`CCC1Oc2ccc(CN3CCN(c4ccc(C(=O)NC)nc4F)CC3)c(F)c2NC1=O` (single isomer, unassigned) [Compound 3ab] displayed an IC50 at PARP1 [1] of less than 100 nM.

For `CNC(=O)c1ccc(N2CCN(Cc3ccc4c(c3F)NC(=O)C3(CC3)O4)CC2)c(C)n1` [Compound A8], the IC50 is less than 5 nM at PARP1 [2] and less than 100 nM against PARP1 [1].
